Activity calls are given as the source filed them. The rule behind the calls is not given here.
What was measured:
[1] = molecular target: Amine oxidase [flavin-containing] B (Homo sapiens, UniProt P27338); assay: Inhibition of MAO-B (unknown origin)
[2] = AUC (0 to last) in mouse blood at 5 mg/kg, po by HPLC/MS/MS analysis; format: ADME, organism-based
[3] = Dose normalized AUC (0 to last) in mouse tumor at 5 mg/kg, po by HPLC/MS/MS analysis; format: ADME, organism-based, Neoplasm; settings: in vivo
[4] = Effect on cleaved PARP level in human NCI-H1417 cells assessed as relative expression at 100 nM measured after 10 days by Western blot analysis (reference value: 0.19); format: functional; settings: time 10 day
[5] = Effect on cleaved PARP level in human NCI-H526 cells assessed as relative expression at 1000 nM measured after 10 days by Western blot analysis (reference value: 0.81); format: functional; settings: time 10 day
[6] = Effect on cleaved PARP level in human NCI-H524 cells assessed as relative expression at 10 nM measured after 7 days by Western blot analysis (reference value: 0.63); format: functional; settings: time 7 day
[7] = Effect on cleaved PARP level in human NCI-H524 cells assessed as relative expression at 1000 nM measured after 14 days by Western blot analysis (reference value: […]); format: functional; settings: time 14 day
[8] = Effect on cleaved PARP level in human NCI-H524 cells assessed as fold change at 10 nM measured after 7 days by Western blot analysis (reference value: 1.00); format: functional; settings: time 7 day
[9] = Effect on cleaved PARP level in human COLO-668 cells assessed as fold change at 100 nM measured after 7 days by Western blot analysis (reference value: 1.00); format: functional; settings: time 7 day
[10] = Effect on cleaved PARP level in human COLO-668 cells assessed as fold change at 10 nM measured after 14 days by Western blot analysis (reference value: 1.00); format: functional; settings: time 14 day
[11] = Effect on cleaved PARP level in human NCI-H1694 cells assessed as relative expression at 1000 nM measured after 14 days by Western blot analysis (reference value: 0.25); format: functional; settings: time 14 day
[12] = Effect on cleaved PARP level in human NCI-H1694 cells assessed as fold change at 10 nM measured after 7 days by Western blot analysis (reference value: 1.00); format: functional; settings: time 7 day
[13] = Effect on cleaved PARP level in human NCI-H1694 cells assessed as fold change at 1000 nM measured after 14 days by Western blot analysis (reference value: 1.00); format: functional; settings: time 14 day
[14] = Effect on cleaved PARP level in human NCI-H69 cells assessed as relative expression at 100 nM measured after 7 days by Western blot analysis (reference value: 0.02); format: functional; settings: time 7 day
[15] = Effect on cleaved PARP level in human NCI-H69 cells assessed as relative expression at 100 nM measured after 10 days by Western blot analysis (reference value: 0.03); format: functional; settings: time 10 day
[16] = Effect on cleaved PARP level in human NCI-H69 cells assessed as relative expression at 100 nM measured after 14 days by Western blot analysis (reference value: 0.03); format: functional; settings: time 14 day
[17] = Effect on cleaved PARP level in human NCI-H69 cells assessed as fold change at 1000 nM measured after 10 days by Western blot analysis (reference value: 1.00); format: functional; settings: time 10 day
[18] = Effect on cleaved PARP level in human NCI-H510 cells assessed as relative expression at 10 nM measured after 14 days by Western blot analysis (reference value: 0.01); format: functional, NCI-H510A; settings: time 14 day
[19] = Effect on cleaved PARP level in human NCI-H889 cells assessed as relative expression at 100 nM measured after 7 days by Western blot analysis (reference value: 0.34); format: functional; settings: time 7 day
[20] = Effect on cleaved PARP level in human NCI-H2171 cells assessed as relative expression at 100 nM measured after 7 days by Western blot analysis (reference value: 0.02); format: functional; settings: time 7 day
[21] = Effect on cleaved PARP level in human NCI-H2171 cells assessed as relative expression at 10 nM measured after 14 days by Western blot analysis (reference value: 0.01); format: functional; settings: time 14 day
[22] = Effect on cleaved PARP level in human NCI-H2171 cells assessed as fold change at 100 nM measured after 7 days by Western blot analysis (reference value: 1.00); format: functional; settings: time 7 day
[23] = Effect on cleaved PARP level in human NCI-H146 cells assessed as fold change at 1000 nM measured after 7 days by Western blot analysis (reference value: 1.00); format: functional; settings: time 7 day
[24] = Toxicity in rat assessed as suppression of erythroid maturation in bone marrow measured for 28 days; settings: in vivo, 672 h, time 28 day
[25] = Toxicity in dog assessed as neutrophenia measured for 28 days; set-up: species or system Canis lupus familiaris; settings: in vivo, 672 h, time 28 day
[26] = Toxicity in dog assessed as multifocal hemorrhage in organs measured for 28 days; set-up: species or system Canis lupus familiaris; settings: in vivo, 672 h, time 28 day
NCI-H526 [27] = assay: Antitumor activity against human NCI-H526 cells xenografted in nude mouse assessed as mean tumor volume at 0.5 mg/kg, po administered daily measured twice weekly (reference value: 2359 +/- 247 mm3); format: functional
NCI-H2171 = assay: Antitumor activity against human NCI-H2171 cells xenografted in nude mouse assessed as tumor growth inhibition at […] mg/kg, po administered daily measured twice weekly relative to control; format: functional; settings: read-out: TGI
NCI-H510A = assay: Effect on NSE gene expression in human NCI-H510A cells at 1 uM measured after 4 to 7 days by qRT-PCR analysis; format: functional, cell-based; settings: time 4-7 day
SHP77 = assay: Effect on NCAM gene expression in human SHP77 cells at 1 uM measured after 4 days by qRT-PCR analysis; format: functional, cell-based; settings: time 4.0 day
NCI-H526 [28] = assay: In vivo inhibition of LSD1 in human NCI-H526 cells xenografted in nude mouse assessed as change in FEZ1 gene expression measured after 24 hrs post single administration by qRT-PCR analysis; format: functional, organism-based; settings: dose 0.06-135 mg/kg
NCI-H526 [29] = assay: In vivo inhibition of LSD1 in human NCI-H526 cells xenografted in nude mouse assessed as change in TOX3 gene expression administrated daily for 5 days by qRT-PCR analysis; format: functional, organism-based; settings: dose 0.02-135 mg/kg, time 5.0 day
NCI-H1417 [30] = assay: In vivo inhibition of LSD1 in human NCI-H1417 cells xenografted in nude mouse assessed as change in SNTB1 gene expression measured after 24 hrs post single administration by qRT-PCR analysis; format: functional, organism-based; settings: dose 0.02-135 mg/kg
NCI-H1417 [31] = assay: In vivo inhibition of LSD1 in human NCI-H1417 cells xenografted in nude mouse assessed as change in ZEB1 gene expression measured after 24 hrs post single administration by qRT-PCR analysis; format: functional, organism-based; settings: dose 0.02-135 mg/kg
[32] = Antitumor activity against human PDX L44 cells xenografted in mouse assessed as tumor growth inhibition at 1.5 mg/kg administered daily measured for 30 days relative to control; format: functional; settings: PDX LX44, 720 h, time 30 day, read-out: TGI
[33] = Antitumor activity against human PDX L48 cells xenografted in mouse assessed as tumor growth inhibition at 1.5 mg/kg administered daily measured for 16 days relative to control; format: functional; settings: PDX LX48, 384 h, time 16 day, read-out: TGI

Amine oxidase [flavin-containing] B, sequence (P27338 whole entry): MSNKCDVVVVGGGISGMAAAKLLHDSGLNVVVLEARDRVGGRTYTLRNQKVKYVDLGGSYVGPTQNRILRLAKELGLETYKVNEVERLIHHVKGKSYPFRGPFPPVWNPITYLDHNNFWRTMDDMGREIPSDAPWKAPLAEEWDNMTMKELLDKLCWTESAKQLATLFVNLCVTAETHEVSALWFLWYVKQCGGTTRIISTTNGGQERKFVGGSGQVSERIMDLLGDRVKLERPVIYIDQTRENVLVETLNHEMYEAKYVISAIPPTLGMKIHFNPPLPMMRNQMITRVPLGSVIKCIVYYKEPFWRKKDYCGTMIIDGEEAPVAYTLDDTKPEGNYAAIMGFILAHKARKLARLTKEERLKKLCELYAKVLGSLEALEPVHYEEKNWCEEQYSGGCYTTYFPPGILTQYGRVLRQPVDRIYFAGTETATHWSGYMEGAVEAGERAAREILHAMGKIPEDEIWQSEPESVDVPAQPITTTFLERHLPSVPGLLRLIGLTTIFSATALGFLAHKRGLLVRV

**Q.** For `O=C(O)c1ccc(CN2CCC(CN[C@@H]3C[C@H]3c3ccccc3)CC2)cc1` [GSK2879552], which IC50 [1] is on record?
**A.** 20 µM

**Q.** What about the AUC(0-t) [2] of the same compound?
**A.** 853 ng·h/mL

**Q.** What about the AUClast/dose [3] of the same compound?
**A.** 464 ng·h/mL/mg/kg

**Q.** What about the Activity [4] of the same compound?
**A.** 0.4

**Q.** What about the Activity [5] of the same compound?
**A.** 1.15

**Q.** And the Activity [6]?
**A.** 0.62

**Q.** And the Activity [7]?
**A.** 1.17

**Q.** And the “fold change (FC)” value [8]?
**A.** 0.99

**Q.** What about the “fold change (FC)” value [9] of the same compound?
**A.** 1.06

**Q.** And the “fold change (FC)” value [10]?
**A.** 0.41

**Q.** And the Activity [11]?
**A.** 0.21

**Q.** What about the “fold change (FC)” value [12] of the same compound?
**A.** 1.22

**Q.** And the “fold change (FC)” value [13]?
**A.** 0.84

**Q.** And the Activity [14]?
**A.** 0.03

**Q.** What about the Activity [15] of the same compound?
**A.** 0.06

**Q.** What about the Activity [16] of the same compound?
**A.** 0.16

**Q.** What about the “fold change (FC)” value [17] of the same compound?
**A.** 2.5

**Q.** What about the Activity [18] of the same compound?
**A.** 0.32

**Q.** And the Activity [19]?
**A.** 0.43

**Q.** What about the Activity [20] of the same compound?
**A.** 0.03

**Q.** And the Activity [21]?
**A.** 0.01

**Q.** And the “fold change (FC)” value [22]?
**A.** 1.71

**Q.** And the “fold change (FC)” value [23]?
**A.** 1.12

**Q.** What about the Activity [24] of the same compound?
**A.** Toxic

**Q.** What about the Activity [25] of the same compound?
**A.** Toxic

**Q.** And the Activity [26]?
**A.** Toxic

**Q.** What about the Activity (NCI-H526 [27]) of the same compound?
**A.** 1319 mm3

**Q.** And the inhibition in vivo at 1.25 mg/kg (NCI-H2171)?
**A.** 37%

**Q.** What about the Activity (NCI-H510A) of the same compound?
**A.** inactive

**Q.** What about the Activity (SHP77) of the same compound?
**A.** inactive

**Q.** What about the inhibition (NCI-H526 [28]) of the same compound?
**A.** Dose-Dependent Effect

**Q.** And the inhibition (NCI-H526 [29])?
**A.** Dose-Dependent Effect

**Q.** What about the inhibition (NCI-H1417 [30]) of the same compound?
**A.** Dose-Dependent Effect

**Q.** What about the inhibition (NCI-H1417 [31]) of the same compound?
**A.** Dose-Dependent Effect

**Q.** And the inhibition in vivo at 1.5 mg/kg [32]?
**A.** 69%

**Q.** And the inhibition in vivo at 1.5 mg/kg [33]?
**A.** 74%
